Results: US20250222146A1, “Radiopharmaceuticals Targeting Somatostatin Receptor 2 and Uses Thereof” (RayzeBio, Inc., priority 2023, published 2025)
Numbered stars: 1 amine (or outer) side, 2 acyl side, 3 side chain; on linkers, the order of the positions; unused ones are H or OH. Square brackets hold non-standard residues; d marks the D form. Side chains are listed from the residue outwards. Peptide text beside a SMILES is read from it. * marks the point of attachment. DOTA(Lu)NH(CH2)6NHCOCH2 = O=C(CN1CCN2CCN3CCN(CC1)CC(=O)[O][Lu]([O]C(=O)C2)[O]C(=O)C3)NCCCCCCNC(=O)C*; DOTA(Lu) = O=C1CN2CCN3CCN(CC(=O)*)CCN(CC2)CC(=O)[O][Lu]([O]1)[O]C(=O)C3; X5 = O=C(CN1CCN2CCN3CCN(CC1)CC(=O)[O][Lu]([O]C(=O)C2)[O]C(=O)C3)NCC*; Ala(piperidin-4-yl) = O=C([C@H](CC1CCN([*:3])CC1)N[*:1])[*:2]; dTrp(βS-Me) = C[C@@H](c1c[nH]c2ccccc12)[C@@H](N)C(=O)O; X8 = O=C([C@@H](Cc1n[nH]c2ccccc12)N[*:1])[*:2]; X21 = CC(c1ccccc1)[C@H](N[*:1])C(=O)[*:2]; dNMeW = CN[C@H](Cc1c[nH]c2ccccc12)C(=O)O; mTyr = N[C@@H](Cc1cccc(O)c1)C(=O)O; 4Pal = N[C@@H](Cc1ccncc1)C(=O)O; Cha = N[C@@H](CC1CCCCC1)C(=O)O; NMehCys = CN[C@@H](CCS)C(=O)O; NMeK = CN[C@@H](CCCCN)C(=O)O; NMeS = CN[C@@H](CO)C(=O)O; GABA = NCCCC(=O)O

What follows are molecules tested against SSTR2 (Homo sapiens, UniProt P30874) (assay: SSTR binding affinity by radioligand binding competition assay ([125I]-Tyr11-Somatostatin, membrane extracts)). Conditions: SSTR2 Ki, radioligand competition, [125I]-Tyr11-Somatostatin 0.1 nM, membrane extracts; Ki from IC50 by Cheng Prusoff.
SSTR2, sequence (P30874 whole entry): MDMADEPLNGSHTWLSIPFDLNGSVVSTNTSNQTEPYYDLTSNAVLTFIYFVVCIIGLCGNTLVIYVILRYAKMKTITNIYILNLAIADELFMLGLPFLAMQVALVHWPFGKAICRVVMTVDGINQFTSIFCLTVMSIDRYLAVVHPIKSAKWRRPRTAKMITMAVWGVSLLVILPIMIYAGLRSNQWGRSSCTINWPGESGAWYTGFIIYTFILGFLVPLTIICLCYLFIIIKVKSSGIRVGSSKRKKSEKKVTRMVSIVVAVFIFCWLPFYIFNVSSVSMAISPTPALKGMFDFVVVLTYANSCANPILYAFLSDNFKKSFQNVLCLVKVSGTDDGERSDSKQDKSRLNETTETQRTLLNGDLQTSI

SMILES	Ki [nM]
C[C@@H](O)[C@@H]1NC(=O)[C@H](CCCCN)NC(=O)[C@@H](Cc2c[nH]c3ccccc23)NC(=O)[C@H](Cc2ccc(O)cc2)NC(=O)[C@H](CCCCNC(=O)CCCCC[C@H](NC(=O)CN2CCN3CCN4CCN(CC2)CC(=O)[O][Lu]([O]C(=O)C3)[O]C(=O)C4)C(=O)O)N(C)C(=O)[C@H](Cc2ccccc2)NC1=O [RB-0003298]	3.33 to 10
C[C@@H](O)[C@@H]1NC(=O)[C@H](CCCCN)NC(=O)[C@@H](Cc2c[nH]c3ccccc23)NC(=O)[C@H](Cc2ccc(O)cc2)NC(=O)[C@H](CCCCNC(=O)CN2CCN3CCN4CCN(CC2)CC(=O)[O][Lu]([O]C(=O)C3)[O]C(=O)C4)N(C)C(=O)[C@H](Cc2ccccc2)NC1=O [RB-0003292]	< 1

Same assay, conditions: radioligand competition, [125I]-Tyr11-Somatostatin 0.1 nM, membrane extracts; Ki from IC50 by Cheng Prusoff; read-out: SSTR2 Ki

SMILES	Ki [nM]
C[C@@H](O)[C@@H]1NC(=O)[C@H](CC2CCNCC2)NC(=O)[C@@H]([C@@H](C)c2c[nH]c3ccccc23)NC(=O)[C@H](Cc2ccc(O)cc2)NC(=O)[C@H](CCCCNC(=O)CCCNC(=O)CN2CCN3CCN4CCN(CC2)CC(=O)[O][Lu]([O]C(=O)C3)[O]C(=O)C4)N(C)C(=O)[C@H](Cc2ccccc2)NC1=O [RB-0006403] (cyclo(F[NMeK]([GABA-DOTA(Lu)])Y[dTrp(βS-Me)][Ala(piperidin-4-yl)]T))	1 to 3.33
CC(c1ccccc1)[C@@H]1NC(=O)[C@H]([C@@H](C)O)NC(=O)[C@H](CCCCN)NC(=O)[C@@H](Cc2c[nH]c3ccccc23)NC(=O)[C@H](Cc2ccc(O)cc2)NC(=O)[C@H](CCSCC(=O)NCCCCCCNC(=O)CN2CCN3CCN4CCN(CC2)CC(=O)[O][Lu]([O]C(=O)C3)[O]C(=O)C4)N(C)C1=O (some centres unmarked) [RB-0003281] (cyclo(KT[X21][NMehCys](DOTA(Lu)NH(CH2)6NHCOCH2)Y[dW]))	3.33 to 10
C[C@@H](O)[C@@H]1NC(=O)[C@H](CCCCN)NC(=O)[C@@H](Cc2c[nH]c3ccccc23)NC(=O)[C@H](Cc2ccncc2)NC(=O)[C@H](CCSCC(=O)NCCCCCCNC(=O)CN2CCN3CCN4CCN(CC2)CC(=O)[O][Lu]([O]C(=O)C3)[O]C(=O)C4)N(C)C(=O)[C@H](Cc2ccccc2)NC1=O [RB-0003002] (cyclo([4Pal][dW]KTF[NMehCys](DOTA(Lu)NH(CH2)6NHCOCH2)))	< 1
C[C@@H](O)[C@@H]1NC(=O)[C@H](CCCCN)NC(=O)[C@@H](Cc2c[nH]c3ccccc23)NC(=O)[C@H](Cc2ccc(O)cc2)NC(=O)[C@H](CCCSCC(=O)NCCCCCNC(=O)CN2CCN3CCN4CCN(CC2)CC(=O)[O][Lu]([O]C(=O)C3)[O]C(=O)C4)N(C)C(=O)[C@H](Cc2ccccc2)NC1=O [RB-0003482]	< 1
C[C@@H](O)[C@@H]1NC(=O)[C@H](CCCCN)NC(=O)[C@@H](Cc2c[nH]c3ccccc23)NC(=O)[C@H](Cc2ccc(O)cc2)NC(=O)[C@H](CCSCC(=O)NCCCCCCNC(=O)CN2CCN3CCN4CCN(CC2)CC(=O)[O][Lu]([O]C(=O)C3)[O]C(=O)C4)N(C)C(=O)[C@@H]2CCCN2C1=O [RB-0005864] (cyclo(KTP[NMehCys](DOTA(Lu)NH(CH2)6NHCOCH2)Y[dW]))	1 to 3.33
C[C@@H](O)[C@@H]1NC(=O)[C@H](CC2CCNCC2)NC(=O)[C@@H]([C@@H](C)c2c[nH]c3ccccc23)NC(=O)[C@H](Cc2ccc(O)cc2)NC(=O)[C@H](CCCCNC(=O)CN2CCN3CCN4CCN(CC2)CC(=O)[O][Lu]([O]C(=O)C3)[O]C(=O)C4)N(C)C(=O)[C@H](Cc2ccccc2)NC1=O [RB-0005797] (cyclo(F[NMeK](DOTA(Lu))Y[dTrp(βS-Me)][Ala(piperidin-4-yl)]T))	< 1
C[C@@H](O)[C@@H]1NC(=O)[C@H](CN2CCNCC2)NC(=O)[C@@H]([C@@H](C)c2c[nH]c3ccccc23)NC(=O)[C@H](Cc2ccc(O)cc2)NC(=O)[C@H](CCCCNC(=O)CCC2C(=O)[O][Ga]3[O]C(=O)CN4CCN(CCN2CC4)CC(=O)[O]3)N(C)C(=O)[C@H](Cc2ccccc2)NC1=O (mixture of isomers) [RB-0006417]	1 to 3.33
C[C@@H](O)[C@@H]1NC(=O)[C@H](CC2CCNCC2)NC(=O)[C@@H](Cc2n[nH]c3ccccc23)NC(=O)[C@H](Cc2ccc(O)cc2)NC(=O)[C@H](CCCCNC(=O)CN2CCN3CCN4CCN(CC2)CC(=O)[O][Lu]([O]C(=O)C3)[O]C(=O)C4)N(C)C(=O)[C@H](Cc2ccccc2)NC1=O [RB-0006553] (cyclo(F[NMeK](DOTA(Lu))Y[X8][Ala(piperidin-4-yl)]T))	10 to 33.3
CC(C)[C@@H]1NC(=O)[C@H](CCCCN)NC(=O)[C@@H](Cc2c[nH]c3ccccc23)NC(=O)[C@H](Cc2ccc(O)cc2)NC(=O)[C@H](CCSCC(=O)NCCCCCCNC(=O)CN2CCN3CCN4CCN(CC2)CC(=O)[O][Lu]([O]C(=O)C3)[O]C(=O)C4)N(C)C(=O)[C@H](CC2CCCCC2)NC1=O [RB-0004617] (cyclo([Cha][NMehCys](DOTA(Lu)NH(CH2)6NHCOCH2)Y[dW]KV))	1 to 3.33
C[C@@H](O)[C@@H]1NC(=O)[C@H](CCCCN)NC(=O)[C@@H](Cc2c[nH]c3ccccc23)N(C)C(=O)[C@H](Cc2ccc(O)cc2)NC(=O)[C@H](CCSCC(=O)NCCCCCCNC(=O)CN2CCN3CCN4CCN(CC2)CC(=O)[O][Lu]([O]C(=O)C3)[O]C(=O)C4)N(C)C(=O)[C@H](Cc2ccccc2)NC1=O [RB-0005330] (cyclo(F[NMehCys](DOTA(Lu)NH(CH2)6NHCOCH2)Y[dNMeW]KT))	< 1
C[C@@H](O)[C@@H]1NC(=O)[C@H](CCCCN)NC(=O)[C@@H](Cc2c[nH]c3ccccc23)NC(=O)[C@H](Cc2ccncc2)NC(=O)[C@H](CCSCC(=O)NCCCCCCNC(=O)CN2CCN3CCN4CCN(CC2)CC(=O)[O][Lu]([O]C(=O)C3)[O]C(=O)C4)N(C)C(=O)[C@H](Cc2ccncc2)NC1=O [RB-0003443] (cyclo([4Pal][NMehCys](DOTA(Lu)NH(CH2)6NHCOCH2)[4Pal][dW]KT))	10 to 33.3
C[C@@H](O)[C@@H]1NC(=O)[C@H](CCCCN)NC(=O)[C@@H](Cc2c[nH]c3ccccc23)NC(=O)[C@H](Cc2ccc(O)cc2)NC(=O)[C@H](CC2CCN(C(=O)CCCCCNC(=O)CN3CCN4CCN5CCN(CC3)CC(=O)[O][Lu]([O]C(=O)C4)[O]C(=O)C5)CC2)N(C)C(=O)[C@H](Cc2ccccc2)NC1=O [RB-0005854]	10 to 33.3
C[C@@H](O)[C@@H]1NC(=O)[C@H](CCCCN)NC(=O)[C@@H](Cc2c[nH]c3ccccc23)NC(=O)[C@H](Cc2ccc(O)cc2)NC(=O)[C@H](CC(=O)NCCCCCCNC(=O)CN2CCN3CCN4CCN(CC2)CC(=O)[O][Lu]([O]C(=O)C3)[O]C(=O)C4)N(C)C(=O)[C@H](Cc2ccccc2)NC1=O [RB-0005895]	3.33 to 10
C[C@@H](O)[C@@H]1NC(=O)[C@H](CC2CCNCC2)NC(=O)[C@@H](Cc2c[nH]c3ccccc23)NC(=O)[C@H](Cc2ccc(O)cc2)NC(=O)[C@H](CCCCNC(=O)CN2CCN3CCN4CCN(CC2)CC(=O)[O][Lu]([O]C(=O)C3)[O]C(=O)C4)N(C)C(=O)[C@H](Cc2cccc(O)c2)NC1=O [RB-0005984] (cyclo([NMeK](DOTA(Lu))Y[dW][Ala(piperidin-4-yl)]T[mTyr]))	1 to 3.33
C[C@@H](O)[C@@H]1NC(=O)[C@H](CCCCN)NC(=O)[C@@H]([C@@H](C)c2c[nH]c3ccccc23)NC(=O)[C@H](Cc2ccc(O)cc2)NC(=O)[C@H](CCSCC(=O)NCCCCCCNC(=O)CN2CCN3CCN4CCN(CC2)CC(=O)[O][Lu]([O]C(=O)C3)[O]C(=O)C4)N(C)C(=O)[C@H](Cc2ccccc2)NC1=O [RB-0003148] (cyclo(F[NMehCys](DOTA(Lu)NH(CH2)6NHCOCH2)Y[dTrp(βS-Me)]KT))	< 1
C[C@@H](O)[C@@H]1NC(=O)[C@H](CC2CCNCC2)NC(=O)[C@@H]([C@@H](C)c2c[nH]c3ccccc23)NC(=O)[C@H](Cc2ccc(O)cc2)NC(=O)[C@H](COCCNC(=O)CN2CCN3CCN4CCN(CC2)CC(=O)[O][Lu]([O]C(=O)C3)[O]C(=O)C4)N(C)C(=O)[C@H](Cc2ccccc2)NC1=O [RB-0006095] (cyclo(F[NMeS](X5)Y[dTrp(βS-Me)][Ala(piperidin-4-yl)]T))	< 1
C[C@@H](O)[C@@H]1NC(=O)[C@H](CCCCN)NC(=O)[C@@H](Cc2c[nH]c3ccccc23)NC(=O)[C@H](Cc2ccc(O)cc2)NC(=O)[C@H](CCSCC(=O)NCCCCCCNC(=O)CCC(C(=O)O)N2CCN3CCN4CCN(CC2)CC(=O)[O][Lu]([O]C(=O)C4)[O]C(=O)C3)N(C)C(=O)[C@H](Cc2ccccc2)NC1=O (some centres unmarked) [RB-0005274]	< 1

Same assay, conditions: read-out: SSTR2 Ki

Ki [nM]	SMILES
1 to 3.33	CC(=O)NCCCC[C@H]1C(=O)N[C@@H](Cc2ccc(O)cc2)C(=O)N[C@H](Cc2c[nH]c3ccccc23)C(=O)N[C@@H](CCCCN)C(=O)N[C@@H](C(C)C)C(=O)N[C@@H](Cc2ccccc2)C(=O)N1C [RB-0002329] (HELM PEPTIDE1{F.[CN([C@@H](CCCCN[*:3])C(=O)[*:2])[*:1]].Y.[dW].K.V}|PEPTIDE2{[ac]}$PEPTIDE1,PEPTIDE2,2:R3-1:R2|PEPTIDE1,PEPTIDE1,1:R1-6:R2$$$V2.0)
1 to 3.33	C[C@H](c1ccccc1)[C@@H]1NC(=O)[C@H]([C@@H](C)O)NC(=O)[C@H](CCCCN)NC(=O)[C@@H]([C@@H](C)c2c[nH]c3ccccc23)NC(=O)[C@H](Cc2ccncc2)NC(=O)[C@H](CCSCC(=O)NCCCCCCNC(=O)CN2CCN(CC(=O)O)CCN(CC(=O)O)CCN(CC(=O)O)CC2)N(C)C1=O [RB-0003408]
< 1	CC(C)[C@@H]1NC(=O)[C@H](CCCCN)NC(=O)[C@@H](Cc2c[nH]c3ccccc23)NC(=O)[C@H](C(c2ccccc2)c2ccccc2)NC(=O)[C@H](C)N(C)C(=O)[C@H](Cc2ccccc2)NC1=O [RB-0002596] (HELM PEPTIDE1{[O=C([C@@H](N[*:1])C(c1ccccc1)c1ccccc1)[*:2]].[dW].K.V.F.[meA]}$PEPTIDE1,PEPTIDE1,1:R1-6:R2$$$V2.0)

Same assay, conditions: read-out: SSTR2 Ki; radioligand competition, [125I]-Tyr11-Somatostatin 0.1 nM, membrane extracts; Ki from IC50 by Cheng Prusoff

SMILES	Ki [nM]
CC(C)[C@@H]1NC(=O)[C@H](CCCCN)NC(=O)[C@@H](Cc2c[nH]c3ccccc23)NC(=O)[C@H](Cc2ccc(O)cc2)NC(=O)[C@H](CCC(=O)NCCCCCCNC(=O)CN2CCN(CC(=O)O)CCN(CC(=O)O)CCN(CC(=O)O)CC2)N(C)C(=O)[C@H](Cc2ccccc2)NC1=O [RB-0002678] (HELM PEPTIDE1{F.[CN([C@@H](CCC(=O)[*:3])C(=O)[*:2])[*:1]].Y.[dW].K.V}|CHEM1{[O=C(O)CN1CCN(CC(=O)O)CCN(CC(=O)NCCCCCCN[*:1])CCN(CC(=O)O)CC1]}$PEPTIDE1,CHEM1,2:R3-1:R1|PEPTIDE1,PEPTIDE1,1:R1-6:R2$$$V2.0)	3.33 to 10
